# Source: patent US6869929B2, “Use of transcription factors for treating inflammation and other diseases” (Beth Israel Deaconess Medical Center, priority 2000, dated 2005)
# How the values were obtained:
# COL2A1 promoter = COL2A1 promoter luciferase cotransfection in T/C-28a2 cells; format: cell-based, human; conditions: for inhibition of COL2A1/4.0 activity: T/C-28a2, pGL3 construct, highest concentrations tested
# Method: The COL2A1 sequence spanning −577 to +3428 bp (Goldring M B, et al, J Cell Biochem 1994;54:85-99, 39) was cloned into the pGL2-basic (pGL2B) luciferase reporter gene vector (Promega,) and named pGL2-COL2/4.0. Deletion constructs containing −577/+125 bp, −131/+125 bp, −87/+125 bp were prepared by enzyme digestion of pGL2-COL2/4.0 using PstI, ApaI, and PuuII, followed by ligation. For the deletion constructs −45/+125 bp, −83/+7 bp, and −45/+7 bp, PCR products were generated as described (Osaki et al.) and cloned into the pGL2-Basic luciferase vector. These reporter constructs were used as templates to generate point mutations or internal deletions by PCR mutagenesis employing the oligonucleotides listed in FIG. 16 and the QuikChange™ Site-Directed Mutagenesis Kit (Stratagene, La Jolla, Calif.). DNA fragments containing point mutations were then cloned into the pGL2B vector and confirmed by DNA sequencing using a G2 primer on pGL2 DNA. Deletions were also made in the −577/+127 bp COL2A1 promoter construct using the ExSite™ PCR-Based Site-Directed Mutagenesis Kit (Stratagene).
# Transient transfection experiments were carried out in C-28/I2 cells using LipofectAMINE PLUS™ Reagent (Life Technologies). Cells were seeded in 6-well tissue culture plates at 3.5×10^5 cells/well in DMEM/F12 containing 10% FCS 24 h prior to transfection. For each well, 1 μg of COL2A1-luciferase construct, 6 μl of PLUS reagent and 92 μl of serum-free DMEM/F12 were mixed and incubated for 15 min at room temperature. LipofectAMINE+ reagent (4 μl) in 100 μl of serum-free medium was then added to each reaction mixture and incubation was continued for an additional 30 min at room temperature. Finally, the transfection mixture was combined with 800 μl of serum-free medium and the lipid-nucleic acid complex was transferred to the washed cell monolayer in each well. After incubation for 4 h at 37° C., the transfection mix was diluted with an equal volume of DMEM/F12 containing 2% Nutridoma-SP, and incubation continued for 18 h in the absence or presence of IL-1β. For cotransfections, the cells were incubated for 24 h to permit expression of recombinant proteins prior to treatment with IL-1β for a further 18 h. Cell lysates were prepared by extraction with 200 μl of Reporter Lysis Buffer (Promega) and the protein content was determined using the Coomassie Plus Protein Assay Reagent (PIERCE). Luciferase activities were determined by chemiluminescence assay using the Autolumat LB953 luminometer (EG&G Berthold, Oak Ridge, Tenn.), normalized to the amount of protein. Each data point was calculated as the mean±standard deviation for three independently transfected cultures from one representative of at least three experiments. […]
# ESE-1 [1] = assay: ESE-1 mRNA Northern blot in LB-12 osteoblasts; format: cell-based, human; conditions: LB-12 cells
# Method: (§1) U-87 Mg and U-138 Mg (human glioma), THP-1 (human monocytic), RAW 264.7 (murine monocytic), LB-12 (human osteoblast-like large T antigen transformed bone marrow stromal cells), and human chondrocytes were grown and treated with cytokines as described (Apperley, J., et al. 1990. J Bone Mineral Res. 5:S93; Goldring, M. B., et al. 1994. J Clin Invest 94:2307-16; Goldring, S. R., et al. 1983. J Bone Joint Surg 65:575-84; Libermann, T. A., et al. 1987. Embo J. 6:1627-1632).
# Total RNA was harvested using QIAshreder (Qiagen) and RNeasy® Mini Kit (Quiagen) or Trizol (Gibco BRL). Poly A^+ RNA was prepared with MicroPoly(A) Pure (Ambion). Northern blots (5 μg total RNA) were hybridized using a full length ESE-1 cDNA probe as described (Oettgen, P., et al. et al. 1997, Mol Cell Biol 17:4419-33.).
# Osteoblasts, the bone cells responsible for bone formation, represent another connective tissue cell target of inflammatory cytokines in joint disorders (Bogoch, E. R., and E. Moran. 1998, Can J Surg 41:264-71). […] LB-12 cells were incubated for different times in the absence or presence of IL-1β. […] Since the rapid, but transient induction of ESE-1 resembles that of immediate early genes, we tested the effect of the protein synthesis inhibitor cycloheximide which superinduces expression of certain genes due to mRNA stabilization. Cycloheximide alone had no effect, but superinduced IL-1β-mediated ESE-1 mRNA expression (FIG. 11d).
# ESE-1 [2] = assay: ESE-1 mRNA RT-PCR in immortalized chondrocytes T/C28a2, C28/I2, C20/A4; format: cell-based, human; conditions: T/C28a2, C28/I2 and C20/A4 chondrocytes; 24 hours
# Method: as §1
# (§2) cDNAs were generated from 1 μg of total RNA using Ready-To-Go™ You-prime First-Strand Beads (Amersham Pharmacia Biotech Inc). RT-PCR amplifications of 0.1 μg cDNA were carried out using a MJResearch thermal cycler PTC-100 as follows: 5 min at 94° C., 20-37 cycles of 30 sec at 94° C., 30 sec at 56° C., and 30 sec at 72° C., followed by 5 min at 72° C. (Oettgen, P., et al. 2000, J Biol Chem 275:1216-25). The sequences of the human ESE-1 primers and the primers for human GAPDH were as described (Oettgen, P., et al. 1999, J Biol Chem 274:29439-52).
# To test the hypothesis that ESE-1 is a mediator of cytokine responses in non-epithelial cell types, we analyzed ESE-1 expression in response to a variety of cytokines in several connective tissue cell types. Immortalized human chondrocytes, T/C28a2, C28/I2, and C20/A4 (Goldring, M. B., et al. 1994, J Clin Invest 94:2307-16), were stimulated with IL-1β, TNF-α and IFN-γ for 24 hours. […] The kinetics of ESE-1 induction was explored in a time course experiment with T/ C28a2 chondrocytes.
# ESE-1 [3] = assay: ESE-1 mRNA RT-PCR in RA synovial fibroblasts; format: cell-based, human; conditions: for ESE-1 mRNA expression, agent alone: 4th passage RA synovial fibroblasts
# Method: Tissues from patients with rheumatoid arthritis (RA) were obtained as discarded materials from total joint replacement surgery or synovectomy. RA synovial tissue samples were cultured for the generation of adherent synovial fibroblasts. Dispersed synovial tissues were prepared by a previously published method (Goldring, S. R., et al. 1983. The synovial-like membrane at the bone-cement interface in loose total hip replacements and its proposed role in bone lysis. J Bone Joint Surg 65:575-84). Cells were subjected to 2-4 passages and stimulated with IL-1β (R&D Systems) at 100 pg/ml or with TNF-α (R&D Systems) at 5 ng/ml.
# as §2
# The synovium in RA is comprised of heterogeneous cell populations including monocyte/macrophages, lymphocytes and synovial fibroblasts. To evaluate whether ESE-1 expression in synovial fibroblasts is regulated by proinflammatory cytokines, 4th passage synovial fibroblasts isolated from RA synovium were stimulated for different times with IL-1β in the absence or presence of indomethacin. […] They also indicate that cytokine-induced prostaglandins may modulate steady state ESE-1 mRNA levels. […] We, therefore, focused our attention in further studies on IL-1β.
# [4] = biological target: T1, p65 subunit of NF-kB, full-length, in vitro translated (UniProt Q04206 1-551, limits assumed, 35S-methionine labeled (pull-down assay)); assay: GST pull-down, 35S-labeled in vitro translated p65
# T1 construct: mature; In the pull-down it was translated in rabbit reticulocyte lysate with 35S-methionine; in the cotransfections it was expressed from pCI; also called p65 Rel domain protein
# Method: A series of GST-ESE-1 fusion proteins were generated by PCR with specific primers to contain in frame restriction enzyme sites and sequenced to confirm that there were no mutations introduced by the PCR. GST-ESE-1 fusion proteins were prepared as previously described. 35S-methionine labeled in vitro translated full-length p50 and p65 were incubated with equal amounts of GST-ESE-1 fusion proteins or GST on agarose beads in 200 ul of NETN(0.5% Nonidet P-40, 1 mM EDTA, 20 mM Tris-HCl, pH 8.0, 100 mM NaCl) for 3 h at 4 degrees C. with gentle shaking. Bound p50 or p65 proteins were then eluted after three washings with NETN buffer and analyzed on a 12% SDS-polyacrylamide gel.
# NOS2 promoter [5] = assay: ESE-1 transactivation of NOS2 promoter luciferase reporter, cotransfection in RAW cells; format: cell-based, murine; conditions: cotransfected with ESE-1
# Method: (§3) A 1516 and 265 bp fragment corresponding to nucleotides (−1485 to +31) and (−234 to +31) of the murine NOS2 gene promoter were subcloned into the PGL2 luciferase reporter(Promega).
# (§4) Co-transfections of 2×10^5 RAW cells or RASMCs were carried out with 0.6 μg reporter gene construct DNA and 0.6 μg expression vector DNA using 6 μl lipofectamine (Gibco-BRL) as described (Oettgen, P., et al. 1996. Characterization of NERF, a novel transcription factor related to the Ets factor ELF-1. Mol Cell Biol 16:5091-106). The cells were harvested 16 hours after transfection and assayed for luciferase activity. Transfections for every construct were performed independently in duplicates and repeated 3 times with two different plasmid preparations with similar results. Cotransfection of a second plasmid for determination of transfection efficiency was omitted because potential artifacts with this technique have been reported and because many commonly used viral promoters contain potential binding sites for ets factors (Farr, A., and A. Roman. 1992. A pitfall of using a second plasmid to determine transfection efficiency. Nucleic Acids Res 20:920).
# The ability of ESE-1 DN 1 to block transactivation of the NOS2 promoter was tested in RAW cells. Cotransfection of ESE-1 with the NOS2 promoter led to an approximate 12-fold increase in transactivation. […]
# NOS2 promoter [6] = assay: LPS (endotoxin) induction of NOS2 promoter luciferase reporter in RAW cells; format: cell-based, murine
# Method: as §3, §4
# In the presence of LPS, the ESE-1 DN1 protein blocked induction of the NOS2 promoter by LPS by approximately 70-75%. (See FIG. 21C).
# T1 sequence (Q04206 whole entry, the tested form may be a part): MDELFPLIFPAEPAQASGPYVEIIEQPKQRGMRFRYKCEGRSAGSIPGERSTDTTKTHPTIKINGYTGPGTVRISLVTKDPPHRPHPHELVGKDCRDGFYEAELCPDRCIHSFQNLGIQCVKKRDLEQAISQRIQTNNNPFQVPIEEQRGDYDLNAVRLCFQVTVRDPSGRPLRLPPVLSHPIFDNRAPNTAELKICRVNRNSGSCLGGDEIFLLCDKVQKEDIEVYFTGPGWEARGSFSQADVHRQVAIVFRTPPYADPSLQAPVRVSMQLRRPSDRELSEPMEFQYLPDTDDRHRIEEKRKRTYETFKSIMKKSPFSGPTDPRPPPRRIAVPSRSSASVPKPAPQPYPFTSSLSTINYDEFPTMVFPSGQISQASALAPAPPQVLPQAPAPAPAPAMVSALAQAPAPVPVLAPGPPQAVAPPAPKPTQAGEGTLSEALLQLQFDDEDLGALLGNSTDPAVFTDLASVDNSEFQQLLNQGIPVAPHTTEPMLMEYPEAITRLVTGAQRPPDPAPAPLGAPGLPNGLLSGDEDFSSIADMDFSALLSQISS
molecule,measurement,setting,value
pCI-ELF1: expression vector for the ETS factor ELF-1,inhibition of COL2A1/4.0 activity,COL2A1 promoter,65%
C[C@]12CCC(=O)C=C1CC[C@@H]1[C@@H]2[C@@H](O)C[C@@]2(C)[C@H]1CC[C@]2(O)C(=O)CO [Hydrocortisone],IL-1β-mediated ESE-1 mRNA expression in presence of agent,ESE-1 [1],strongly enhanced
same,"ESE-1 mRNA expression, agent alone","ESE-1 [1]; 1, 2, 6, 24 hours",did not induce
IFN-γ: cytokine tested on chondrocytes,ESE-1 expression,ESE-1 [2],failed to induce ESE-1 expression
pCI-NERF2: expression vector for the ETS factor NERF-2,inhibition of COL2A1/4.0 activity,COL2A1 promoter,40%
TNF-α,"ESE-1 mRNA expression, agent alone",ESE-1 [3],minimal ESE-1 induction
same,ESE-1 expression,ESE-1 [2],"stimulated ESE-1 expression in T/ C28a2 cells to similar levels as IL-1β, but only weakly in C28/I2 and C20/A4 cells"
ESE-3: ESE family Ets factor overexpressed by cotransfection,inhibition of pGL2-COL2/4.0,COL2A1 promoter; highest concentration tested,~60%
COc1ccc2c(c1)c(CC(=O)O)c(C)n2C(=O)c1ccc(Cl)cc1 [indomethacin],"ESE-1 mRNA expression, agent alone",ESE-1 [3],did not express detectable ESE-1 mRNA
same,IL-1β-induced ESE-1 mRNA levels in presence of agent,"ESE-1 [3]; RA synovial fibroblasts, 6 hours, 24 hours, 5 days",stabilized and did not decline even after 5 days
"GST-ESE-1 fusion protein, full length ESE-1 (other, UniProt P78545 1-371, looked up, mature; GST fusion on agarose beads in the pull-down; also called full length ESE-1 protein; not shown: glutathione S-transferase (GST) fusion partner) MAATCEISNIFSNYFSAMYSSEDSTLASVPPAATFGADDLVLTLSNPQMSLEGTEKASWLGEQPQFWSKTQVLDWISYQVEKNKYDASAIDFSRCDMDGATLCNCALEELRLVFGPLGDQLHAQLRDLTSSSSDELSWIIELLEKDGMAFQEALDPGPFDQGSPFAQELLDDGQQASPYHPGSCGAGAPSPGSSDVSTAGTGASRSSHSSDSGGSDVDLDPTDGKLFPSDGFRDCKKGDPKHGKRKRGRPRKLSKEYWDCLEGKKSKHAPRGTHLWEFIRDILIHPELNEGLMKWENRHEGVFKFLRSEAVAQLWGQKKKNSNMTYEKLSRAMRYYYKREILERVDGRRLVYKFGKNSSGWKEEEVLQSRN",binding result,[4],no binding
"ESE-1 DN1: dominant negative ESE-1 protein lacking amino acids 26 through 192, expressed from pCI plasmid (SEQ ID NO: 39) (protein, listed as Homo sapiens) MAATCEISNIFSNYFSAMYSSEDSTAGTGASRSSHSSDSGGSDVDLDPTDGKLFPSDGFRDCKKGDPKHGKRKRGRPRKLSKEYWDCLEGKKSKHAPRGTHLWEFIRDILIHPELNEGLMKWENRHEGVFKFLRSEAVAQLWGQKKKNSNMTYEKLSRAMRYYYKREILERVDGRRLVYKFGKNSSGWKEEEVLQSRN",ESE-1 transactivation of the NOS2 promoter blocked by,NOS2 promoter [5],60-70%
same,induction of the NOS2 promoter by LPS blocked by,NOS2 promoter [6]; in the presence of LPS,70-75%
same,basal NOS2 promoter activity,NOS2 promoter [6]; prior to LPS induction,slight reduction
